Source: patent US7192953B2, “Antibacterial agents” (Vernalis (Oxford) Limited, priority 2002, dated 2007)
In brackets after ≈: the same amount, converted by molar mass.

What was measured:
Format in all cases: cell-based
H. influenzae = assay: MIC by agar plate dilution against clinical isolates of H. influenzae; conditions: 4 strains of H. influenzae (clinical isolates), 18 to 24 hr, 35° C; for MIC: Haemophilus influenzae, read-out: MIC or MIC range, H. Influenzae
Protocol: (§1) Minimal Inhibitory concentrations (MIC) of inhibitors against clinical isolates of S. pneumoniae, H. influenzae and M. catarrhalis obtained from the Public Health and Clinical Microbiology Laboratory, Addenbrooke's Hospital, Hills Road, Cambridge CB2 2QW, UK, were determined by a standard agar plate dilution method following recommended in British Society for Antimicrobial Chemotherapy Working Party. 1991. “A guide to sensitivity testing British Society for Antimicrobial Chemotherapy, London, United Kingdom”. Briefly Iso-Sensitest agar (pH 7.2: Oxoid, United Kingdom) was employed supplemented with 5% horse blood (Oxoid) and 20 μg of NAD (Sigma) per ml to support growth of fastidious bacteria. The inoculum used was approximately 10^4 colony forming units of each isolate contained in a volume of 1 μl. Plates were incubated 18 to 24 hr in air, or for fastidious bacteria an atmosphere enriched with 4–6% carbon dioxide at 35° C. The MIC was determined as the lowest concentration of an antimicrobial tested that inhibited growth of the inoculum, disregarding a single persisting colony or faint haze caused by the inoculation.
(§2) The compounds of the Examples were are antibacterially active in the above assays, The following table states the MICs or MIC ranges of the tested compounds against 6 strains of S. pneumoniae, 4 strains of H. influenzae and 3 strains of M. catarrhalis.

S. pneumoniae = assay: MIC by agar plate dilution against clinical isolates of S. pneumoniae; conditions: 6 strains of S. pneumoniae (clinical isolates), 18 to 24 hr, 35° C; for MIC: Streptococcus pneumoniae, read-out: MIC or MIC range, S. pneumoniae
Protocol: as §1, §2

M. catarrhalis = assay: MIC by agar plate dilution against clinical isolates of M. catarrhalis; conditions: 3 strains of M. catarrhalis (clinical isolates), 18 to 24 hr, 35° C; for MIC: Moraxella catarrhalis, read-out: MIC or MIC range, M. catarrhalis
Protocol: as §1, §2

Row | Compound | MIC or MIC range, H. Influenzae (H. influenzae) | MIC or MIC range, S. pneumoniae (S. pneumoniae) | MIC or MIC range, M. catarrhalis (M. catarrhalis) | MIC (H. influenzae) | MIC (S. pneumoniae) | MIC (M. catarrhalis)
1 | CN(C(=O)N1CCCCN1C(=O)[C@H](CC1CCCC1)CN(O)C=O)c1ccccc1 [Example 21, 2-[(2R)-Cyclopentylmethyl-3-(formylhydroxyamino)-propionyl]-tetrahydropyridazine-1-Carboxylic acid methylphenylamide] | 4 to 16 µg/mL | 1 to 4 µg/mL | 0.125 µg/mL (≈ 0.3 µM) |  |  | 
2 | CC(C)(C)OC(=O)N1CCCN1C(=O)[C@H](CC1CCCC1)CN(O)C=O [Example 23, 2-[(2R)-Cyclopentylmethyl-3-(formylhydroxyamino)-propionyl]-pyrazolidine-1-Carboxylic acid tert-butyl ester] | 0.5 to 2 µg/mL | 8 to 16 µg/mL | <0.125 µg/mL |  |  | 
3 | CC(C)(C)OC(=O)N1CCCCN1C(=O)[C@H](CC1CCCC1)CN(O)C=O [Example 24, 2-[(2R)-Cyclopentylmethyl-3-(formylhydroxyamino)-propionyl]-tetrahydropyridazine-1-Carboxylic acid tert-butyl ester] |  |  |  | 1 to 4 µg/mL (≈ 2.61 to 10.4 µM) | 4 to 16 µg/mL (≈ 10.4 to 41.7 µM) | < 0.125 µg/mL
4 | COCC(=O)N1CCCN1C(=O)[C@H](CC1CCCC1)CN(O)C=O [Example 26, N-{(2R)-Cyclopentylmethyl-3-[2-(2-methoxyacetyl)-pyrazolidin-1-yl]-3-oxo-propyl}N-hydroxyformamide] |  |  |  | 1 to 8 µg/mL (≈ 2.93 to 23.4 µM) | 8 µg/mL (≈ 23.4 µM) | 0.125 µg/mL (≈ 0.366 µM)
5 | O=CN(O)C[C@@H](CC1CCCC1)C(=O)N1CCCN1C(=O)c1ccccc1 [Example 27, N-{(2R)-Cyclopentylmethyl-3-[2-benzoyl-pyrazolidin-1-yl]-3-oxo-propyl}-N-hydroxyformamide] |  |  |  | 2 to 16 µg/mL (≈ 5.36 to 42.8 µM) | 16 µg/mL (≈ 42.8 µM) | 0.06 µg/mL (≈ 0.161 µM)
6 | O=CN(O)C[C@@H](CC1CCCC1)C(=O)N1CCCN1C(=O)c1ccc(C(F)(F)F)cc1 [Example 28, N-{(2R)-Cyclopentylmethyl-3-[2-(4-trifluoromethylbenzoyl)-pyrazolidin-1-yl]-3-oxo-propyl}-N-hydroxyformamide] |  |  |  | 16 µg/mL (≈ 36.2 µM) | 0.5 to 4 µg/mL (≈ 1.13 to 9.06 µM) | 0.06 µg/mL (≈ 0.136 µM)
7 | O=CN(O)C[C@@H](CC1CCCC1)C(=O)N1CCCN1C(=O)Cc1ccccc1 [Example 29, N-{(2R)-Cyclopentylmethyl-3-[2-phenylacetyl-pyrazolidin-1-yl]-3-oxo-propyl}-N-hydroxyformamide] |  |  |  | 2 to 16 µg/mL (≈ 5.16 to 41.3 µM) | 4 to 8 µg/mL (≈ 10.3 to 20.6 µM) | 0.06 µg/mL (≈ 0.155 µM)
8 | O=CN(O)C[C@@H](CC1CCCC1)C(=O)N1CCCN1C(=O)C1CCCCC1 [Example 31, N-{(2R)-Cyclopentylmethyl-3-[2-Cyclohexanecarbonyl-pyrazolidin-1-yl]-3-oxo-propyl}-N-hydroxyformamide] |  |  |  | 4 to 16 µg/mL (≈ 10.5 to 42.2 µM) | 8 µg/mL (≈ 21.1 µM) | 0.06 µg/mL (≈ 0.158 µM)
9 | O=CN(O)C[C@@H](CC1CCCC1)C(=O)N1CCCN1C(=O)c1ccc(N2CCOCC2)nc1 [Example 32, N-{(2R)-Cyclopentylmethyl-3-[2-(6-morpholin-4-yl-pyridine-3-Carbonyl)-pyrazolidin-1-yl]-3-oxo-propyl}-N-hydroxyformamide] |  |  |  | 16 µg/mL (≈ 34.8 µM) | 1 to 8 µg/mL (≈ 2.18 to 17.4 µM) | 0.25 µg/mL (≈ 0.544 µM)
10 | COc1ccc(C(=O)N2CCCN2C(=O)[C@H](CC2CCCC2)CN(O)C=O)cc1 [Example 33, N-{(2R)-Cyclopentylmethyl-3-[2-(4-methoxybenzoyl)-pyrazolidin-1-yl]-3-oxo-propyl}-N-hydroxyformamide] |  |  |  | 16 to 32 µg/mL (≈ 39.7 to 79.3 µM) | 4 to 16 µg/mL (≈ 9.91 to 39.7 µM) | 0.06 µg/mL (≈ 0.149 µM)
11 | O=CN(O)C[C@@H](CC1CCCC1)C(=O)N1CCCN1C(=O)c1ccc2c(c1)OCO2 [Example 34, N-{(2R)-Cyclopentylmethyl-3-[2-(benzo[1,3]-dioxole-5-Carbonyl)-pyrazolidin-1-yl]-3-oxo-propyl}N-hydroxyformamide] |  |  |  | 4 to 16 µg/mL (≈ 9.58 to 38.3 µM) | 8 to 16 µg/mL (≈ 19.2 to 38.3 µM) | 0.125 µg/mL (≈ 0.299 µM)
12 | O=CN(O)C[C@@H](CC1CCCC1)C(=O)N1CCCN1C(=O)c1ccc(F)cc1 [Example 35, N-{(2R)-Cyclopentylmethyl-3-[2-(4-fluorobenzoyl)-pyrazolidin-1-yl]-3-oxo-propyl}-N-hydroxyformamide] |  |  |  | 4 to 8 µg/mL (≈ 10.2 to 20.4 µM) | 16 µg/mL (≈ 40.9 µM) | 0.125 µg/mL (≈ 0.319 µM)
13 | O=CN(O)C[C@@H](CC1CCCC1)C(=O)N1CCCN1C(=O)c1cccnc1 [Example 36, N-{(2R)-Cyclopentylmethyl-3-[2-(pyridine-3-Carbonyl)-pyrazolidin-1-yl]-3-oxo-propyl}N-hydroxyformamide] |  |  |  | 2 to 32 µg/mL (≈ 5.34 to 85.5 µM) | 8 µg/mL (≈ 21.4 µM) | 0.125 µg/mL (≈ 0.334 µM)
14 | COc1ccccc1NC(=O)N1CCCN1C(=O)[C@H](CC1CCCC1)CN(O)C=O [Example 38, 2-[(2R)-Cyclopentylmethyl-3-(formylhydroxyamino)-propionyl]-pyrazolidine-1-Carboxylic acid (2-methoxyphenyl)amide] | 1 to 2 µg/mL | 8 to 16 µg/mL | 0.25 µg/mL (≈ 0.597 µM) |  |  | 
15 | O=CN(O)C[C@@H](CC1CCCC1)C(=O)N1CCCN1C(=O)Nc1ccccc1 [Example 39, 2-[(2R)-Cyclopentylmethyl-3-(formylhydroxyamino)-propionyl]-pyrazolidine-1-Carboxylic acid phenylamide] |  |  |  | 0.125 to 2 µg/mL (≈ 0.322 to 5.15 µM) | 4 to 16 µg/mL (≈ 10.3 to 41.2 µM) | < 0.125 µg/mL
16 | O=CN(O)C[C@@H](CC1CCCC1)C(=O)N1CCCN1C(=O)Nc1ccc(F)cc1 [Example 40] |  |  |  | 0.125 to 2 µg/mL (≈ 0.308 to 4.92 µM) | 8 to 16 µg/mL (≈ 19.7 to 39.4 µM) | < 0.125 µg/mL
17 | COc1cccc(NC(=O)N2CCCN2C(=O)[C@H](CC2CCCC2)CN(O)C=O)c1 [Example 41, 2-[(2R)-Cyclopentylmethyl-3-(formylhydroxyamino)-propionyl]-pyrazolidine-1-Carboxylic acid (3-methoxyphenyl)amide] |  |  |  | 0.125 to 2 µg/mL (≈ 0.299 to 4.78 µM) | 4 to 8 µg/mL (≈ 9.56 to 19.1 µM) | < 0.125 µg/mL
18 | O=C(C[C@@H](CC1CCCC1)C(=O)N1CCCCN1C(=O)c1ccco1)NO [Example 44, (3R)-Cyclopentylmethyl-4-[2-(furan-2-Carbonyl)-tetrahydropyridazin-1-yl]-N-hydroxy-4-oxo-butyramide] | 0.06 to 0.125 µg/mL | 2 to 4 µg/mL | 0.6 µg/mL (≈ 1.59 µM) |  |  | 
19 | (2R)-Cyclopentylmethyl-3-[2-(furan-2-Carbonyl)-pyrazolidin-1-yl]-3-oxo-propyl}formamide [Example 25] | <0.125 to 1 µg/mL | 4 to 8 µg/mL | <0.125 µg/mL |  |  | 
20 | (2R)-Cyclopentylmethyl-3-[2-(furan-2-Carbonyl)-tetrahydropyridazin-1-yl]-3-oxo-propyl}formamide [Example 1] | <0.125 to 0.25 µg/mL | 0.5 to 2 µg/mL | <0.125 µg/mL |  |  | 
